ChEMBL document CHEMBL3885861, “Open TG-GATES”

Species on record: Rattus norvegicus
Test: Open TG-GATES - Regimen: Single
Format: toxicity, organism-based, Sprague-Dawley
Set-up: regimen Single, gender Male, age 6 weeks
Settings: in vivo, po, route gavage; for APTT / Bas / Eos / Fbg / Hb / Ht / Lym / MCH / MCHC / MCV / Mono / Neu / PT / Plat / RBC / Ret / WBC: tissue Blood; for KIDNEY_L / KIDNEY_R / KIDNEY_TOTAL: tissue Kidney; for LIVER: tissue Liver; for A/G / ALP / ALT / AST / BUN / CRE / Ca / Cl / DBIL / GLC / IP / K / LDH / Na / PL / RALB / TBIL / TC / TG / TP / gamma-GTP: tissue Plasma
[1] = 0 mg/kg, 3 h, dose level Control
[2] = 0 mg/kg, 6 h, dose level Control
[3] = 0 mg/kg, 9 h, dose level Control
[4] = 0 mg/kg, 24 h, dose level Control

## Cc1cccc(Nc2ccccc2C(=O)O)c1C [MEFENAMIC ACID]
[1]
  TERMINAL_BW: 216.3 g
  APTT: 18.2 s
  Bas: 0%
  Eos: 1%
  Fbg: 217.8 mg/dL
  Hb: 13.2 g/dL
  Ht: 37.1%
  Lym: 77.8%
  MCH: 21.9 pg
  MCHC: 35.5%
  MCV: 61.9 fL
  Mono: 2.4%
  Neu: 16.4%
  PT: 12.4 s
  Plat: 117.6 x10_4/uL
  RBC: 600.2 x10_4/ul
  Ret: 7.4%
  WBC: 74.9 x10_2/uL
  KIDNEY_L: 1 g
  KIDNEY_R: 1 g
  KIDNEY_TOTAL: 1.9 g
  LIVER: 9.7 g
  A/G: 1.7
  ALP: 1061 IU/L
  ALT: 35 IU/L
  AST: 67 IU/L
  BUN: 10.8 mg/dL
  CRE: 0.4 mg/dL
  Ca: 10.9 mg/dL
  Cl: 103 meq/L
  DBIL: 0.078 mg/dL
  GLC: 190.4 mg/dL
  IP: 9 mg/dL
  K: 4.1 meq/L
  LDH: 213 IU/L
  Na: 140.8 meq/L
  PL: 145.8 mg/dL
  RALB: 3.5 g/dL
  TBIL: 0.1 mg/dL
  TC: 80 mg/dL
  TG: 49 mg/dL
  TP: 5.6 g/dL
  gamma-GTP: 1.2 IU/L
[2]
  TERMINAL_BW: 214.5 g
  APTT: 18.6 s
  Bas: 0%
  Eos: 1%
  Fbg: 219.4 mg/dL
  Hb: 13.2 g/dL
  Ht: 37.2%
  Lym: 80.6%
  MCH: 22 pg
  MCHC: 35.5%
  MCV: 61.9 fL
  Mono: 2.4%
  Neu: 15%
  PT: 13 s
  Plat: 107.7 x10_4/uL
  RBC: 601.8 x10_4/ul
  Ret: 7.8%
  WBC: 87.4 x10_2/uL
  KIDNEY_L: 1 g
  KIDNEY_R: 1 g
  KIDNEY_TOTAL: 2 g
  LIVER: 8.8 g
  A/G: 1.6
  ALP: 898.6 IU/L
  ALT: 36.8 IU/L
  AST: 65.4 IU/L
  BUN: 8.6 mg/dL
  CRE: 0.3 mg/dL
  Ca: 10.3 mg/dL
  Cl: 102.8 meq/L
  DBIL: 0.062 mg/dL
  GLC: 183.4 mg/dL
  IP: 8.9 mg/dL
  K: 4.2 meq/L
  LDH: 172 IU/L
  Na: 139.6 meq/L
  PL: 134.6 mg/dL
  RALB: 3.3 g/dL
  TBIL: 0.1 mg/dL
  TC: 79.4 mg/dL
  TG: 39.8 mg/dL
  TP: 5.4 g/dL
  gamma-GTP: 1 IU/L
[3]
  TERMINAL_BW: 214.7 g
  APTT: 18.8 s
  Bas: 0%
  Eos: 1%
  Fbg: 228.8 mg/dL
  Hb: 13.6 g/dL
  Ht: 38.3%
  Lym: 78.6%
  MCH: 22.2 pg
  MCHC: 35.6%
  MCV: 62.6 fL
  Mono: 2.2%
  Neu: 17.2%
  PT: 12.8 s
  Plat: 106.8 x10_4/uL
  RBC: 613 x10_4/ul
  Ret: 7.1%
  WBC: 75.3 x10_2/uL
  KIDNEY_L: 1 g
  KIDNEY_R: 1 g
  KIDNEY_TOTAL: 2 g
  LIVER: 8.7 g
  A/G: 1.7
  ALP: 891.2 IU/L
  ALT: 32.6 IU/L
  AST: 64.2 IU/L
  BUN: 10.6 mg/dL
  CRE: 0.3 mg/dL
  Ca: 10.4 mg/dL
  Cl: 102.8 meq/L
  DBIL: 0.074 mg/dL
  GLC: 202.6 mg/dL
  IP: 8.9 mg/dL
  K: 3.8 meq/L
  LDH: 187.4 IU/L
  Na: 141 meq/L
  PL: 136.4 mg/dL
  RALB: 3.5 g/dL
  TBIL: 0.1 mg/dL
  TC: 75.2 mg/dL
  TG: 55.4 mg/dL
  TP: 5.6 g/dL
  gamma-GTP: 1 IU/L
[4]
  TERMINAL_BW: 229.4 g
  APTT: 18 s
  Bas: 0%
  Eos: 1%
  Fbg: 214.8 mg/dL
  Hb: 13.4 g/dL
  Ht: 38.5%
  Lym: 79.2%
  MCH: 22.4 pg
  MCHC: 34.8%
  MCV: 64.2 fL
  Mono: 2%
  Neu: 16.4%
  PT: 12 s
  Plat: 116.5 x10_4/uL
  RBC: 599.6 x10_4/ul
  Ret: 6.7%
  WBC: 80 x10_2/uL
  KIDNEY_L: 1 g
  KIDNEY_R: 1 g
  KIDNEY_TOTAL: 2.1 g
  LIVER: 11.1 g
  A/G: 1.5
  ALP: 943.6 IU/L
  ALT: 39 IU/L
  AST: 66 IU/L
  BUN: 13.6 mg/dL
  CRE: 0.4 mg/dL
  Ca: 10.9 mg/dL
  Cl: 102.8 meq/L
  DBIL: 0.1 mg/dL
  GLC: 193.2 mg/dL
  IP: 7.9 mg/dL
  K: 4.1 meq/L
  LDH: 223.6 IU/L
  Na: 140.2 meq/L
  PL: 147.8 mg/dL
  RALB: 3.4 g/dL
  TBIL: 0.2 mg/dL
  TC: 74.6 mg/dL
  TG: 120.4 mg/dL
  TP: 5.7 g/dL
  gamma-GTP: 1.4 IU/L
30 mg/kg, 3 h, dose level Low
  TERMINAL_BW: 215.4 g
  APTT: 19 s
  Bas: 0%
  Eos: 1%
  Fbg: 214.4 mg/dL
  Hb: 13.3 g/dL
  Ht: 37.7%
  Lym: 79.6%
  MCH: 22 pg
  MCHC: 35.3%
  MCV: 62.1 fL
  Mono: 2.2%
  Neu: 15.4%
  PT: 12.4 s
  Plat: 118.3 x10_4/uL
  RBC: 607.2 x10_4/ul
  Ret: 7.3%
  WBC: 91.2 x10_2/uL
  KIDNEY_L: 1 g
  KIDNEY_R: 1 g
  KIDNEY_TOTAL: 2 g
  LIVER: 9.5 g
  A/G: 1.6
  ALP: 842.4 IU/L
  ALT: 36.2 IU/L
  AST: 68.8 IU/L
  BUN: 11 mg/dL
  CRE: 0.4 mg/dL
  Ca: 10.7 mg/dL
  Cl: 103.6 meq/L
  DBIL: 0.074 mg/dL
  GLC: 189.8 mg/dL
  IP: 8.8 mg/dL
  K: 4.1 meq/L
  LDH: 197.4 IU/L
  Na: 141.2 meq/L
  PL: 134.8 mg/dL
  RALB: 3.4 g/dL
  TBIL: 0.1 mg/dL
  TC: 73.4 mg/dL
  TG: 49.2 mg/dL
  TP: 5.4 g/dL
  gamma-GTP: 1.2 IU/L
30 mg/kg, 6 h, dose level Low
  TERMINAL_BW: 213 g
  APTT: 18.5 s
  Bas: 0%
  Eos: 1%
  Fbg: 226.6 mg/dL
  Hb: 13.4 g/dL
  Ht: 37.4%
  Lym: 76.8%
  MCH: 22.3 pg
  MCHC: 35.8%
  MCV: 62.5 fL
  Mono: 2.6%
  Neu: 18.2%
  PT: 12.6 s
  Plat: 118.7 x10_4/uL
  RBC: 599 x10_4/ul
  Ret: 7.5%
  WBC: 86.8 x10_2/uL
  KIDNEY_L: 1 g
  KIDNEY_R: 1 g
  KIDNEY_TOTAL: 2 g
  LIVER: 9.5 g
  A/G: 1.7
  ALP: 972 IU/L
  ALT: 37.4 IU/L
  AST: 65.2 IU/L
  BUN: 9.8 mg/dL
  CRE: 0.3 mg/dL
  Ca: 10.5 mg/dL
  Cl: 102.6 meq/L
  DBIL: 0.07 mg/dL
  GLC: 191.2 mg/dL
  IP: 8.7 mg/dL
  K: 4 meq/L
  LDH: 168.4 IU/L
  Na: 140.2 meq/L
  PL: 136.6 mg/dL
  RALB: 3.4 g/dL
  TBIL: 0.1 mg/dL
  TC: 77.8 mg/dL
  TG: 58 mg/dL
  TP: 5.4 g/dL
  gamma-GTP: 1 IU/L
30 mg/kg, 9 h, dose level Low
  TERMINAL_BW: 211.9 g
  APTT: 18.5 s
  Bas: 0%
  Eos: 1%
  Fbg: 214.2 mg/dL
  Hb: 13.3 g/dL
  Ht: 37.1%
  Lym: 79.8%
  MCH: 21.4 pg
  MCHC: 35.7%
  MCV: 60 fL
  Mono: 3%
  Neu: 14.6%
  PT: 12.9 s
  Plat: 120.5 x10_4/uL
  RBC: 621.4 x10_4/ul
  Ret: 7.2%
  WBC: 68.9 x10_2/uL
  KIDNEY_L: 0.9 g
  KIDNEY_R: 1 g
  KIDNEY_TOTAL: 1.9 g
  LIVER: 8.5 g
  A/G: 1.6
  ALP: 921.4 IU/L
  ALT: 30.2 IU/L
  AST: 62 IU/L
  BUN: 10.8 mg/dL
  CRE: 0.3 mg/dL
  Ca: 10.5 mg/dL
  Cl: 102.4 meq/L
  DBIL: 0.066 mg/dL
  GLC: 192.6 mg/dL
  IP: 9.1 mg/dL
  K: 3.8 meq/L
  LDH: 164.8 IU/L
  Na: 139.8 meq/L
  PL: 140.2 mg/dL
  RALB: 3.3 g/dL
  TBIL: 0.1 mg/dL
  TC: 79 mg/dL
  TG: 42.8 mg/dL
  TP: 5.3 g/dL
  gamma-GTP: 1 IU/L
30 mg/kg, 24 h, dose level Low
  TERMINAL_BW: 227.6 g
  APTT: 18.2 s
  Bas: 0%
  Eos: 1%
  Fbg: 227.4 mg/dL
  Hb: 13.4 g/dL
  Ht: 38.5%
  Lym: 76.2%
  MCH: 22.3 pg
  MCHC: 34.9%
  MCV: 63.9 fL
  Mono: 3.4%
  Neu: 17.2%
  PT: 11.9 s
  Plat: 117.8 x10_4/uL
  RBC: 604 x10_4/ul
  Ret: 6.7%
  WBC: 93.5 x10_2/uL
  KIDNEY_L: 1 g
  KIDNEY_R: 1 g
  KIDNEY_TOTAL: 2 g
  LIVER: 10.7 g
  A/G: 1.5
  ALP: 1061.2 IU/L
  ALT: 42.2 IU/L
  AST: 71 IU/L
  BUN: 15 mg/dL
  CRE: 0.4 mg/dL
  Ca: 10.8 mg/dL
  Cl: 102.8 meq/L
  DBIL: 0.096 mg/dL
  GLC: 205.4 mg/dL
  IP: 7.6 mg/dL
  K: 4.2 meq/L
  LDH: 198 IU/L
  Na: 139.6 meq/L
  PL: 161 mg/dL
  RALB: 3.5 g/dL
  TBIL: 0.2 mg/dL
  TC: 80.8 mg/dL
  TG: 116.2 mg/dL
  TP: 5.7 g/dL
  gamma-GTP: 1.4 IU/L
